The target in assay [1] is Neuraminidase (Influenza A virus (A/Puerto Rico/8/1934(H1N1)), UniProt P03468). Kind of assay: Inhibition of influenza A sialidase in vitro.
Assay [2] deals with Influenza A virus. The assay is described as follows: In vitro antiviral activity against Influenza A. The format is functional, organism-based.
Assay [3] concerns Influenza A virus. The assay is described as follows: Inhibitory concentration by Plaque reduction assay; range-1.9-12. The format is functional, organism-based. (Plaques are areas of infected cells; plaque reduction assays count them against a control.)
For assay [4], the system named is Influenza A virus. Kind of assay: Inhibitory concentration by Plaque reduction assay; range-1.9-20. The format is functional, organism-based.

Some results are limits rather than exact numbers.

This is an account of results in ChEMBL document CHEMBL1135181, “Synthesis and anti-influenza virus activity of 7-O-alkylated derivatives related to zanamivir” (Bioorg Med Chem Lett, 2002).

Sequence of Neuraminidase (Influenza A virus (A/Puerto Rico/8/1934(H1N1)), UniProt P03468) (P03468 whole entry): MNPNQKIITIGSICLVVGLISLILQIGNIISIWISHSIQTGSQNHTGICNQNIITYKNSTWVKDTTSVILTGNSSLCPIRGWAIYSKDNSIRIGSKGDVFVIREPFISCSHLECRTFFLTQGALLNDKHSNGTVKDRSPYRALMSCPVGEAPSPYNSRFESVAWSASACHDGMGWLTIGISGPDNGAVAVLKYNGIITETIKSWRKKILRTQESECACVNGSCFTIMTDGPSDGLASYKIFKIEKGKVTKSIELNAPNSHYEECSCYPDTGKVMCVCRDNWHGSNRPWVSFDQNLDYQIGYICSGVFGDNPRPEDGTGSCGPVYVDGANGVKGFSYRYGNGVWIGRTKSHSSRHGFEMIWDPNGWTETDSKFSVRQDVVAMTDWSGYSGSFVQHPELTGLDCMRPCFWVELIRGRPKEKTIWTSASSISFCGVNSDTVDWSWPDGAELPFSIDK

As a reminder, the IC50 is the concentration at which inhibition is half-maximal. In the case of `CCCCCO[C@H](CC)[C@@H]1OC(C(=O)O)=C[C@H](N=C(N)N)[C@H]1NC(C)=O.O=C(O)C(F)(F)F`, the values for the IC50 in assay [1] and in assay [2] were 18.8 nM and 3.8 ng/mL, respectively.

Turning to `CC(=O)N[C@H]1[C@H]([C@H](OCCN)[C@H](O)CO)OC(C(=O)O)=C[C@@H]1NC(=N)N.O=C(O)C(F)(F)F`, the IC50 in assay [1] is 97.5 nM; in assay [2] it was 7.5 ng/mL.

As to `CC(=O)NCCO[C@@H]([C@@H]1OC(C(=O)O)=C[C@H](N=C(N)N)[C@H]1NC(C)=O)[C@H](O)CO.O=C(O)C(F)(F)F`, the IC50 was 18.4 nM in assay [1] and 2.4 ng/mL in assay [2].

In the case of `CC(=O)N[C@H]1[C@H]([C@H](OCC2CCCCC2)[C@H](O)CO)OC(C(=O)O)=C[C@@H]1NC(=N)N.O=C(O)C(F)(F)F`, the IC50 in assay [1] is 67.5 nM; in assay [2], 3 ng/mL.

Consider `CCCO[C@@H]([C@@H]1OC(C(=O)O)=C[C@H](N=C(N)N)[C@H]1NC(C)=O)[C@H](O)CO.O=C(O)C(F)(F)F`, for which the IC50 in assay [1] is 62.7 nM; in assay [2] it was 1.5 ng/mL.

`CCCCCCCCO[C@H](CC)[C@@H]1OC(C(=O)O)=C[C@H](N=C(N)N)[C@H]1NC(C)=O.O=C(O)C(F)(F)F`: the values for the IC50 in assay [1] and in assay [2] were 31.5 nM and 40 ng/mL, respectively.

Turning to `CCCCCO[C@@H]([C@@H]1OC(C(=O)O)=C[C@H](N=C(N)N)[C@H]1NC(C)=O)[C@H](O)CO.O=C(O)C(F)(F)F`, the IC50 was 27.7 nM in assay [1] and 2 ng/mL in assay [2].

Consider `CCCO[C@H](CC)[C@@H]1OC(C(=O)O)=C[C@H](N=C(N)N)[C@H]1NC(C)=O.O=C(O)C(F)(F)F`, for which the IC50 in assay [1] was 30.9 nM; in assay [2], 9 ng/mL.

Take `CCO[C@@H]([C@@H]1OC(C(=O)O)=C[C@H](N=C(N)N)[C@H]1NC(C)=O)[C@H](O)CO`: in assay [1], the IC50 was 55.7 nM.

For `CC(=O)N[C@H]1[C@H]([C@H](OCCC2CCCCC2)[C@H](O)CO)OC(C(=O)O)=C[C@@H]1NC(=N)N.O=C(O)C(F)(F)F`, the IC50 in assay [1] is 47.3 nM; in assay [2] it was 1.9 ng/mL.

Consider `CCCCCCCCCCCCO[C@@H]([C@@H]1OC(C(=O)O)=C[C@H](N=C(N)N)[C@H]1NC(C)=O)[C@H](O)CO.O=C(O)C(F)(F)F`, for which the IC50 in assay [1] is 80.7 nM; in assay [2], 2.2 ng/mL.

Consider `CCCCCCCCO[C@@H]([C@@H]1OC(C(=O)O)=C[C@H](N=C(N)N)[C@H]1NC(C)=O)[C@H](O)CO.O=C(O)C(F)(F)F`, for which the IC50 is 36.2 nM in assay [1] and 1.8 ng/mL in assay [2].

For the compound `CC(=O)N[C@H]1[C@H]([C@H](OCCO)[C@H](O)CO)OC(C(=O)O)=C[C@@H]1NC(=N)N.O=C(O)C(F)(F)F`, the IC50 in assay [1] is 21 nM; in assay [2], 1.8 ng/mL.

For the compound `CC(=O)N[C@H]1[C@H]([C@H](OCCN=[N+]=[N-])[C@H](O)CO)OC(C(=O)O)=C[C@@H]1NC(=N)N.O=C(O)C(F)(F)F`, the IC50 in assay [1] is 28.7 nM; in assay [2], 1.5 ng/mL.

Regarding `CCO[C@H](CC)[C@@H]1OC(C(=O)O)=C[C@H](N=C(N)N)[C@H]1NC(C)=O.O=C(O)C(F)(F)F`, the values for the IC50 in assay [1] and in assay [2] were 79.3 nM and 16 ng/mL, respectively.

As for `CCCCCCCCCCCCCCO[C@@H]([C@@H]1OC(C(=O)O)=C[C@H](N=C(N)N)[C@H]1NC(C)=O)[C@H](O)CO.O=C(O)C(F)(F)F`, the IC50 is 408 nM in assay [1] and 11 ng/mL in assay [2].

Regarding `CCCCCCCCCCCCO[C@H](CC)[C@@H]1OC(C(=O)O)=C[C@H](N=C(N)N)[C@H]1NC(C)=O.O=C(O)C(F)(F)F`, the IC50 in assay [1] is 48.7 nM; in assay [2], over 50 ng/mL.

On to `CC(=O)N[C@H]1[C@H]([C@H](O)[C@H](O)CO)OC(C(=O)O)=C[C@@H]1NC(=N)N.O=C(O)C(F)(F)F` [ZANAMIVIR TFA], for which the IC50 in assay [3] and in assay [4] was 1.9 ng/mL throughout.
